Assays:
[1] = system: human fetal hepatocyte line L02; assay: MTT assay on normal cell line L02; assay type: cell-based; conditions: non-cancer cell line
Description: The drug candidate potency depends not only on its cytotoxicity in malignant cells, but also on its relative lack of toxicity toward normal cells.
(§1) The antiproliferative activities in vitro of Crolibulin and all the target compounds were determined by an MTT assay. Briefly, cells were seeded into 96-well plates at a density of 1–3 × 10^4/well (depends on the cell growth rate). 24 h later, triplicate wells were treated with media and the agents. After 72 h ofincubation at 37 °C in 5% CO2, the drug containing medium wasremoved and replaced by 100 mL of fresh medium with 5 mg/mLMTT solution. After 4 h of incubation, the medium with MTT was removed, and […] of DMSO was added to each well. The plates were gently agitated until the purple formazan crystals were dissolved, and the OD490 was determinedusing a microplate reader (MK3, Thermo, Germany). The data were calculated and plotted as the percent viability compared to the control. The 50% inhibitory concentration (IC50) was defined as theconcentration that reduced the absorbance of the untreated wells by 50% of the vehicle in the MTT assay.

[2] = system: HT-29 (human colon cancer); assay: MTT antiproliferative assay, HT-29; assay type: cell-based; conditions: for IC50: Homo sapiens, HT-29, MTT, 72 h, mean ± SD, read-out: IC50 (μM) ±SD HT29
Description: (§2) To evaluate the antiproliferative activity, all synthesized derivatives (5a–5v and 7a–7h) were investigated for their activity in vitro against a panel of cancer cell lines including HT-29 (human colon cancer), H460 (human lung cancer), A549 (human lung carcinoma), MKN-45 (human gastric cancer) and SMMC-7721 (human liver cancer) by MTT assay. CA-4 and Crolibulin were served as positive control, and the results expressed as half-maximal inhibitory concentration (IC50). IC50 values are the concentrations that cause 50% inhibition of cancer cell growth (μM). Data represent the mean values ± standard deviation (SD) of independent experiments performed in triplicate.
(§3) Cell lines and culture conditions.The human colon carcinoma cell line HT-29, the human pulmonary carcinoma cell line A549, the human gastric carcinoma cell line MKN-45, the human breast cancer cell line MDA-MB-231 and human heptocarcinoma cellline SMMC-7721were cultured in RPMI-1640 mediumcontaining 10% FBS, 100 U/mL streptomycin and 100 U/mL penicillinat 37 °C in humidified atmosphere with 5% CO2. All of the cells were purchased from the American Type Culture Collection (ATCC, Manassas, VA).
as §1

[3] = system: A549 (human lung carcinoma); assay: MTT antiproliferative assay, A549; assay type: cell-based; conditions: 72 h, mean ± SD
Description: as §2, §3, §1

[4] = system: H460 (human lung cancer); assay: MTT antiproliferative assay, H460; assay type: cell-based; conditions: Homo sapiens, NCI-H460, 72 h, MTT, 72 h, mean ± SD
Description: as §2, §1

[5] = system: SMMC-7721 (human liver cancer); assay: MTT antiproliferative assay, SMMC-7721; assay type: cell-based; conditions: 72 h, mean ± SD
Description: Data represent the mean values ± standard deviation (SD) of independent experiments performed in triplicate.
All of the cells were purchased from the American Type Culture Collection (ATCC, Manassas, VA).
as §1, with “After 72 h ofincubation at 37 °C in 5% CO2, the drug containing medium wasremoved and replaced by 100 mL of fresh medium with 5 mg/mLMTT solution.” left out, “control.” for “control. The 50% inhibitory concentration (IC50) was defined as theconcentration that reduced the absorbance of the untreated wells by 50% of the vehicle in the MTT assay.”

[6] = system: MKN-45 (human gastric cancer); assay: MTT antiproliferative assay, MKN-45; assay type: cell-based; conditions: 72 h, mean ± SD, read-out: IC50 (μM) ±SD MKN45
Description: as §2, §3, §1

[7] = system: HT-29, H460, A549, MKN-45 and SMMC-7721 cell lines; assay: MTT antiproliferative assay, panel of five cancer cell lines; assay type: cell-based, human; conditions: ratio of IC50 values
Description: IC50 values are the concentrations that cause 50% inhibition of cancer cell growth (μM). Data represent the mean values ± standard deviation (SD) of independent experiments performed in triplicate.
as §1

Structure (SMILES) | effect on normal cell L02 [1] | IC50 [2] | IC50 [3] | IC50 [4] | IC50 [5] | melting point | IC50 [6] | fold increased potency over 5a (H), 5c (3-OMe) and 5d (4-OMe) [7] | fold more active than CA-4 on HT-29 ([2]; ratio of IC50 values) | fold more active than Crolibulin on HT-29 cell ([2]; ratio of IC50 values)
Cc1ccccc1-c1cc(-c2c[nH]c3ccccc23)n2ccnc2c1C#N [5b, 5-(1H-indol-3-yl)-7-(o-tolyl)imidazo[1,2-a]pyridine-8-carbonitrile] | negligible effects | 0.16 ± 0.04 µM | 0.23 ± 0.04 µM | 46.3 ± 5.26 µM | 0.82 ± 0.06 µM | 334.3 to 335.1 °C | 1.52 ± 0.15 µM |  |  | 
N#Cc1c(-c2ccccc2F)cc(-c2c[nH]c3ccccc23)n2ccnc12 [5e, 7-(2-fluorophenyl)-5-(1H-indol-3-yl)imidazo[1,2-a]pyridine-8-carbonitrile] |  | 0.09 ± 0.01 µM | 5.67 ± 0.23 µM | 1.16 ± 0.12 µM | 26.2 ± 2.82 µM | 304.6 to 308.8 °C | 0.96 ± 0.06 µM | at least 1.7 fold |  | 
N#Cc1c(-c2ccccc2Cl)cc(-c2c[nH]c3ccccc23)n2ccnc12 [5f, 7-(2-chlorophenyl)-5-(1H-indol-3-yl)imidazo[1,2-a]pyridine-8-carbonitrile] | negligible effects | 0.07 ± 0.004 µM | 0.95 ± 0.07 µM | 0.18 ± 0.08 µM | 13.8 ± 2.23 µM | 296.7 to 300.1 °C | 0.38 ± 0.06 µM | at least 1.7 fold |  | 
N#Cc1c(-c2ccc(Br)cc2)cc(-c2c[nH]c3ccc(Br)cc23)n2ccnc12 [5u, 5-(5-bromo-1H-indol-3-yl)-7-(4-bromophenyl)imidazo[1,2-a]pyridine-8-carbonitrile] |  | 0.73 ± 0.09 µM | 21.4 ± 2.58 µM | 1.93 ± 0.33 µM | 79.3 ± 5.14 µM | 317.2 to 321.8 °C | 38.1 ± 4.42 µM |  |  | 
N#Cc1c(-c2ccc(F)cc2Cl)cc(-c2c[nH]c3ccc(Br)cc23)n2ccnc12 [5v, 5-(5-bromo-1H-indol-3-yl)-7-(2-chloro-4-fluorophenyl)imidazo[1,2-a]pyridine-8-carbonitrile] |  | 0.26 ± 0.03 µM | 3.57 ± 0.23 µM | 2.13 ± 0.24 µM | 56.3 ± 4.87 µM | 320.8 to 323.2 °C | 7.35 ± 0.54 µM |  |  | 
CNCc1cn2c(-c3c[nH]c4ccccc34)cc(-c3ccc(F)cc3Cl)c(C#N)c2n1 [7a, 7-(2-chloro-4-fluorophenyl)-5-(1H-indol-3-yl)-2-((methylamino)methyl)imidazo[1,2-a]pyridine-8-carbonitrile] |  | 0.04 ± 0.001 µM | 5.34 ± 0.67 µM | 1.29 ± 0.21 µM | 27 ± 3.06 µM | 219.5 to 223.5 °C | 12.2 ± 1.89 µM |  |  | 
CCNCc1cn2c(-c3c[nH]c4ccccc34)cc(-c3ccc(F)cc3Cl)c(C#N)c2n1 [7b, 7-(2-chloro-4-fluorophenyl)-2-((ethylamino)methyl)-5-(1H-indol-3-yl)imidazo[1,2-a]pyridine-8-carbonitrile] |  | 0.03 ± 0.003 µM | 3.54 ± 0.41 µM | 0.96 ± 0.06 µM | 21.6 ± 3.16 µM | 170.7 to 172.6 °C | 20.5 ± 2.32 µM |  | ~1.7 fold | about 17 fold
CC(C)NCc1cn2c(-c3c[nH]c4ccccc34)cc(-c3ccc(F)cc3Cl)c(C#N)c2n1 [7c, 7-(2-chloro-4-fluorophenyl)-5-(1H-indol-3-yl)-2-((isopropylamino)methyl)imidazo[1,2-a]pyridine-8-carbonitrile] |  | 0.33 ± 0.04 µM | 6.18 ± 0.71 µM | 0.96 ± 0.07 µM | 36.7 ± 4.92 µM | 222.2 to 225.3 °C | 22.4 ± 2.51 µM |  |  | 
CN(C)Cc1cn2c(-c3c[nH]c4ccccc34)cc(-c3ccc(F)cc3Cl)c(C#N)c2n1 [7d, 7-(2-chloro-4-fluorophenyl)-2-((dimethylamino)methyl)-5-(1H-indol-3-yl)imidazo[1,2-a]pyridine-8-carbonitrile] |  | 0.19 ± 0.02 µM | 7.53 ± 0.63 µM | 0.71 ± 0.05 µM | 22.1 ± 3.41 µM | 175.4 to 178.4 °C | 16.6 ± 1.13 µM |  |  | 
CCN(CC)Cc1cn2c(-c3c[nH]c4ccccc34)cc(-c3ccc(F)cc3Cl)c(C#N)c2n1 [7e, 7-(2-chloro-4-fluorophenyl)-2-((diethylamino)methyl)-5-(1H-indol-3-yl)imidazo[1,2-a]pyridine-8-carbonitrile] |  | 0.21 ± 0.03 µM | 4.87 ± 0.38 µM | 0.67 ± 0.05 µM | 24.6 ± 2.73 µM | 181.2 to 184.5 °C | 13.8 ± 1.79 µM |  |  | 
CC1CCN(Cc2cn3c(-c4c[nH]c5ccccc45)cc(-c4ccc(F)cc4Cl)c(C#N)c3n2)CC1 [7f, 7-(2-chloro-4-fluorophenyl)-5-(1H-indol-3-yl)-2-((4-methylpiperidin-1-yl)methyl)imidazo[1,2-a]pyridine-8-carbonitrile] |  | 0.56 ± 0.07 µM | 20.3 ± 2.32 µM | 0.85 ± 0.06 µM | 11.3 ± 2.15 µM | 185.7 to 187.9 °C | 1.63 ± 0.28 µM |  |  | 
N#Cc1c(-c2ccc(F)cc2Cl)cc(-c2c[nH]c3ccccc23)n2cc(CN3CCCC3)nc12 [7g, 7-(2-chloro-4-fluorophenyl)-5-(1H-indol-3-yl)-2-(pyrrolidin-1-ylmethyl)imidazo[1,2-a]pyridine-8-carbonitrile] |  | 0.19 ± 0.02 µM | 8.79 ± 0.62 µM | 1.32 ± 0.12 µM | 42.6 ± 4.12 µM | 195 to 199.7 °C | 19.2 ± 1.35 µM |  |  | 
N#Cc1c(-c2ccc(F)cc2Cl)cc(-c2c[nH]c3ccccc23)n2cc(CN3CCOCC3)nc12 [7h, 7-(2-chloro-4-fluorophenyl)-5-(1H-indol-3-yl)-2-(morpholinomethyl)imidazo[1,2-a]pyridine-8-carbonitrile] |  | 0.92 ± 0.14 µM | 16.9 ± 1.98 µM | 1.27 ± 0.14 µM | 28.7 ± 1.79 µM | 201.3 to 203.5 °C | 36.3 ± 5.15 µM |  |  | 
